Laboratory results: US10000483B2, “Bone marrow on X chromosome kinase (BMX) inhibitors and uses thereof” (Dana-Farber Cancer Institute, Inc., priority 2012, dated 2018)
Values joined by “and” are separate entries in the source; they are usually repeats but may differ in a detail not shown here. Equal values may be shown once.

Key:
OCI-Ly3 cells = experiment: Cell proliferation analysis for WM and lymphoma cell lines (CellTiter-Glo); assay type: cell-based; conditions: Homo sapiens, 72 hours
OCI-Ly19 cells = experiment: as above; assay type: cell-based; conditions: Homo sapiens, 72 hours
BCWM.1 cells = experiment: as above; assay type: cell-based; conditions: BCWM1; 72 hours
BTK = BTK (Homo sapiens (Human), UniProt Q06187); experiment: Invitrogen Select Screening in vitro kinase assay; assay type: biochemical
Ramos cells = experiment: Cell proliferation analysis for WM and lymphoma cell lines (CellTiter-Glo); assay type: cell-based; conditions: Homo sapiens, 72 hours
BLK = BLK (Homo sapiens (Human), UniProt P51451); experiment: Invitrogen Select Screening in vitro kinase assay; assay type: biochemical
Description: (§1) The in vitro activity of compounds of Formula (I) and (II) in inhibiting BMX and other kinases were obtained using an Invitrogen Select Screening assay as known in the art. The IC50 values determined from this assay are shown below.

mTOR = mTOR (Homo sapiens (Human), UniProt P42345); experiment: Invitrogen Select Screening in vitro kinase assay; assay type: biochemical
Description: as §1

JAK3 = JAK3 (Homo sapiens (Human), UniProt P52333); experiment: Invitrogen Select Screening in vitro kinase assay; assay type: biochemical
MWCL-1 cells = experiment: Cell proliferation analysis for WM and lymphoma cell lines (CellTiter-Glo); assay type: cell-based; conditions: 72 hours
BMX [1] = target: T1, BMX (Homo sapiens (Human), UniProt P51813); experiment: Invitrogen Select Screening in vitro kinase assay; assay type: biochemical
TEC = TEC (Homo sapiens (Human), UniProt P42680); experiment: Invitrogen Select Screening in vitro kinase assay; assay type: biochemical
Description: as §1

PRCIWM-1 cells = experiment: Cell proliferation analysis for WM and lymphoma cell lines (CellTiter-Glo); assay type: cell-based; conditions: 72 hours
Experimental: CellTiter-Glo® Luminescent cell viability assay (Promega) was used to assess cell survival following treatment with an inhibitor compound of Formula (I) or (II) (e.g., 1-14). Various cell lines were used including Waldenström's macroglobulinemia (WM) cell lines (BCWM.1, MWCL-1, RPCI-WM1) and B-cell lymphoma cell lines (OCI-Ly3, Ramos, OCI-Ly19). Cells were seeded into 384 well plates with the EL406 Combination Washer Dispenser (BioTek Instruments, Inc.) and inhibitor compounds were injected into the cells culture media with the JANUS Automated Workstation (PerkinElmer Inc.). Cells were treated with a series diluted inhibitor compounds (20˜0.04 μM) for 72 hours at 37° C. Luminescent measurement is performed using the 2104 Envision® Multilabel Reader (PerkinElmer Inc.).

RV-1 cells = experiment: Anti-proliferation assay for prostate cancer cells (CellTiter-Glo); assay type: cell-based
Experimental: Data were normalized to control group (DMSO) and represented by the mean of at least two independent measurement with standard error <20%. GI50 were calculated using Prism 5.0 (GraphPad Software, San Diego, Calif.).

BMX [2] = target: T1, BMX; experiment: BMX protein levels in RV-1 cells; assay type: cell-based; conditions: 72 h treatment, 5 μM
Description: Moreover, the depletion could be rescued upon stable overexpression of the C496S mutant BMX.

wild-type (WT) BMX = wild-type (WT) BMX (Homo sapiens (Human), UniProt P51813); experiment: IP kinase assay, BMX autophosphorylation; assay type: biochemical; conditions: FIG. 15
Description: FIG. 15 confirms that the potency of the BMX inhibitors is due to covalent binding to cysteine 496.

Chain of JAK3 (P52333 whole entry): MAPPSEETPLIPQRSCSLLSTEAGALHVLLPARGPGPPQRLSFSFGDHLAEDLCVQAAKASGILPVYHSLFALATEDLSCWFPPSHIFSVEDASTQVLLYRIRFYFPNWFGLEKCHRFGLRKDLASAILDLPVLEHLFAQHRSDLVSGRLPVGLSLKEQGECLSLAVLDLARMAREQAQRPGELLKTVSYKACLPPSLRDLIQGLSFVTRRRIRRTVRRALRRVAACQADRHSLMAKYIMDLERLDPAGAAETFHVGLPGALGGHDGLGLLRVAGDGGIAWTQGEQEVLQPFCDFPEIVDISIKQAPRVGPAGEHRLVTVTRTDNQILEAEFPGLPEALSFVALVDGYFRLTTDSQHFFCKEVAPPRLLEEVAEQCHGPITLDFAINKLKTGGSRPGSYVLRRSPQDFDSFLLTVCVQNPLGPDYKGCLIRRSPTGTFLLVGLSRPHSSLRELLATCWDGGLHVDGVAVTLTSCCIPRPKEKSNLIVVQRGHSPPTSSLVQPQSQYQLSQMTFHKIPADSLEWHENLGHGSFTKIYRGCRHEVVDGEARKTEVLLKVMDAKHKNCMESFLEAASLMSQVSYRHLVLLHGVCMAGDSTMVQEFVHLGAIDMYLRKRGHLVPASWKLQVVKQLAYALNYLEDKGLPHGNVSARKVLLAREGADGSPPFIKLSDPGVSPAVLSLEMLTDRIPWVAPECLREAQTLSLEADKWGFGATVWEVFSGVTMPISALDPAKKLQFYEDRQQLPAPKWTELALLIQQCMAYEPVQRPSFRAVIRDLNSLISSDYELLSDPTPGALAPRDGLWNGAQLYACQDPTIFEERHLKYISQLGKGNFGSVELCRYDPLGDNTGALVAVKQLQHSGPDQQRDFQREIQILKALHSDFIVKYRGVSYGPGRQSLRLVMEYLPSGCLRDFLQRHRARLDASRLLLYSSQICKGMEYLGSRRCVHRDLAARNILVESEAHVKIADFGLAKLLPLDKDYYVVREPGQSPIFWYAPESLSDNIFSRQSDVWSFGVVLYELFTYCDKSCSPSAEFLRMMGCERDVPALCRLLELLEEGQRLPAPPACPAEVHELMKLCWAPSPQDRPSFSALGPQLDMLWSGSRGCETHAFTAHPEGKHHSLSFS
Chain of BLK (P51451 whole entry): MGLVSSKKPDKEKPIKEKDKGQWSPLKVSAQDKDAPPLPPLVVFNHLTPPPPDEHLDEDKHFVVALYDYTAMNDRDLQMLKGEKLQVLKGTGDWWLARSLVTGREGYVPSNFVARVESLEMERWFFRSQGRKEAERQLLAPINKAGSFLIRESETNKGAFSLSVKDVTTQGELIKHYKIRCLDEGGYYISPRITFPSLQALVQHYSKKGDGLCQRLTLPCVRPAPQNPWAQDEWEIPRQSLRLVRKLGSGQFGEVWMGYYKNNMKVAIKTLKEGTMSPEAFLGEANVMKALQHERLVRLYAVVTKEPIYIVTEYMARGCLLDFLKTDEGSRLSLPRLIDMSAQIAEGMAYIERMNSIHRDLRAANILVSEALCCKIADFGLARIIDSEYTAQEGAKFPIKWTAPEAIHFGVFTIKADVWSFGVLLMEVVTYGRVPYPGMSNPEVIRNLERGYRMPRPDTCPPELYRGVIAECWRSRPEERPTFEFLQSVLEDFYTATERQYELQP
T1 sequence (P51813 whole entry): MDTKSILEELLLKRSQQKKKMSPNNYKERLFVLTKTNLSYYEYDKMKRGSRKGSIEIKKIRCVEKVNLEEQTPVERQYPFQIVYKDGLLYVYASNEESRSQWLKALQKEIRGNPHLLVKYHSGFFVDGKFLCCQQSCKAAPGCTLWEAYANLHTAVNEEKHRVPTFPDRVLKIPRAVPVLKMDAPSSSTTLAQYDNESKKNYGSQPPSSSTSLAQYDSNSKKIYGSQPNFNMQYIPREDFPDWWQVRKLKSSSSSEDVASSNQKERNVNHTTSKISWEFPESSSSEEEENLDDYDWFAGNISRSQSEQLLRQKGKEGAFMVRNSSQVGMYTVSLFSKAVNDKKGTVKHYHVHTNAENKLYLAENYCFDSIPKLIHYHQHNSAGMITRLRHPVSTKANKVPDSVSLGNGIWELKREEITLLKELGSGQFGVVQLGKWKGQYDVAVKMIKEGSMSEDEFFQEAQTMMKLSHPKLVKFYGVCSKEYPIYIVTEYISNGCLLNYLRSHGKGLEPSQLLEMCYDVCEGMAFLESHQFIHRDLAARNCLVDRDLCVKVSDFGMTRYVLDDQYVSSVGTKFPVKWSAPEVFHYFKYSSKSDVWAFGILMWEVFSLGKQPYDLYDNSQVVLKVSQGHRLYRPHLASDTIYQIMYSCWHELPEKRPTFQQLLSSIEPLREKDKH
Chain of BTK (Q06187 whole entry): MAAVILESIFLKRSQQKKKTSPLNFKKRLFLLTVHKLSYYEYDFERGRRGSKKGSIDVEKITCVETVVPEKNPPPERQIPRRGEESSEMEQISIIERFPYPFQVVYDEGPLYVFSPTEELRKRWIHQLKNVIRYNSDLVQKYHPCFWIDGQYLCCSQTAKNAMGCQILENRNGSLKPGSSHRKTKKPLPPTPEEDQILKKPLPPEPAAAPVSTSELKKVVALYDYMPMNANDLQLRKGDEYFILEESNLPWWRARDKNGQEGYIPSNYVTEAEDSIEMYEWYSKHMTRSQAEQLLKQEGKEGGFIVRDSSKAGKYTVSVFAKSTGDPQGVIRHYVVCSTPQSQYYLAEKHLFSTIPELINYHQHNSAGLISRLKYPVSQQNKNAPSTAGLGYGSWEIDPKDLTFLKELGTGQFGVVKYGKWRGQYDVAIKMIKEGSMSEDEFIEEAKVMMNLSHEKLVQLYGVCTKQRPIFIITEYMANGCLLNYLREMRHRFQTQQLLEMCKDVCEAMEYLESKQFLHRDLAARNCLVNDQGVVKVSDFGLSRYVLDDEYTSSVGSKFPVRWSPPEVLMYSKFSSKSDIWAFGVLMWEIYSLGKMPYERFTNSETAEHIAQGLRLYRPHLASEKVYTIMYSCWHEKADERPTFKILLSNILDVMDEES
Chain of TEC (P42680 whole entry): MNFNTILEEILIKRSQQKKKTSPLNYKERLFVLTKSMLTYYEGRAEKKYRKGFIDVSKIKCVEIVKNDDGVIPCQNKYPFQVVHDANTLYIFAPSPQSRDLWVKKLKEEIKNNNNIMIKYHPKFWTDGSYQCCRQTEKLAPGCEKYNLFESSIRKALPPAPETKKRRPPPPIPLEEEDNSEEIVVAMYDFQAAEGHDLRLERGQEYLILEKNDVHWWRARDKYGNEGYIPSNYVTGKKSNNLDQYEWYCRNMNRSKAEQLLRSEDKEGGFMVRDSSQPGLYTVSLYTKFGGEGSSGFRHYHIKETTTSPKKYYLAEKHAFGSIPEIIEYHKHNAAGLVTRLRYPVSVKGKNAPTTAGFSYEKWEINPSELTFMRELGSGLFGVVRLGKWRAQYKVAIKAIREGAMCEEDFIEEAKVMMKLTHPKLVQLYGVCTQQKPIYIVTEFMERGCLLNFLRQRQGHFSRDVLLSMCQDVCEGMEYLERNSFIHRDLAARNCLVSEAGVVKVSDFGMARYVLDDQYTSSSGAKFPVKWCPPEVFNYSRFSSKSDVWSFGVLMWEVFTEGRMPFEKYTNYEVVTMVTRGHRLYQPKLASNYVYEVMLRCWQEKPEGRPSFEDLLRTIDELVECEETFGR
Chain of wild-type (WT) BMX (P51813 whole entry): as the sequence (P51813 whole entry) above

EC50 (OCI-Ly3 cells)	EC50 (OCI-Ly19 cells)	EC50 (BCWM.1 cells)	IC50 (BTK)	EC50 (Ramos cells)	IC50 (mTOR)	EC50 (MWCL-1 cells)	IC50 (BMX [1])	Structure (SMILES)	other results
0.24 µM	0.09 µM	0.19 µM	0.115 µM	0.2 µM	0.001 µM	0.67 µM	0.0661 µM and 0.066 µM	C=CC(=O)Nc1cc(-n2c(=O)ccc3cnc4ccc(-c5cccnc5)cc4c32)ccc1C [II-11]	IC50 (BLK): 1.95 µM; IC50 (JAK3): 1.52 µM
–	–	–	0.016 µM	–	0.642 µM	–	0.0133 µM and 0.013 µM	C=CC(=O)Nc1cc(-n2c(=O)ccc3cnc4ccc(-c5ccc6c(c5)OCCO6)cc4c32)ccc1C [I-18]	–
1.67 µM	0.1 µM	0.77 µM	0.006 µM	1.35 µM	0.098 µM	2.47 µM	0.0133 µM and 0.013 µM	C=CC(=O)N1CCc2ccc(-n3c(=O)ccc4cnc5ccc(-c6ccc(N)nc6)cc5c43)cc21 [II-13]	IC50 (BLK): 0.3 µM; IC50 (TEC): 0.027 µM; IC50 (JAK3): 5.64 µM
–	–	–	0.025 µM	–	0.032 µM	–	0.0185 µM and 0.019 µM	C=CC(=O)Nc1cc(-n2c(=O)ccc3cnc4ccc(-c5cnc6ccccc6c5)cc4c32)ccc1C [II-16]	–
0.18 µM	0.051 µM	0.203 µM	–	0.091 µM	–	0.117 µM	–	C=CC(=O)Nc1cc(-n2c(=O)ccc3cnc4ccc(-c5ccc6[nH]ncc6c5)cc4c32)ccc1C [I-22]	–
1.12 µM	0.08 µM	0.49 µM	0.105 µM	0.42 µM	–	1.78 µM	0.0278 µM and 0.028 µM	C=CC(=O)Nc1cc(-n2c(=O)ccc3cnc4ccc(/C=C/c5ccccc5)cc4c32)ccc1C [I-16]	–
0.48 µM	0.07 µM	0.41 µM	0.017 µM	0.28 µM	4.79 µM	2.16 µM	0.0121 µM and 0.012 µM	C=CC(=O)Nc1cc(-n2c(=O)ccc3cnc4ccc(-c5ccoc5)cc4c32)ccc1C [II-10]	IC50 (JAK3): 0.492 µM
0.109 µM	0.09 µM	0.093 µM	–	0.057 µM	–	0.056 µM	–	C=CC(=O)Nc1cc(-n2c(=O)ccc3cnc4ccc(-c5ccc6ccncc6c5)cc4c32)ccc1C [I-21]	–
1.1 µM	> 20 µM	1.02 µM	–	0.602 µM	–	0.798 µM	–	C=CC(=O)Nc1cc(-n2c(=O)ccc3cnc4ccc(-c5ccc6occc6c5)cc4c32)ccc1C [I-20]	–
–	–	–	0.066 µM	–	–	–	0.0406 µM	C=CC(=O)Nc1cc(-n2c(=O)ccc3cnc4ccc(-c5ccc(NC(=O)NC)cc5)cc4c32)ccc1C [I-8]	IC50 (JAK3): 4.17 µM
–	–	–	0.019 µM	–	0.019 µM	–	0.0157 µM and 0.016 µM	C=CC(=O)Nc1cccc(-n2c(=O)ccc3cnc4ccc(-c5ccc(N)nc5)cc4c32)c1 [II-7]	–
–	–	–	0.079 µM	–	–	–	–	C=CC(=O)Nc1cc(-n2c(=O)ccc3cnc4ccc(-c5ccc(C(N)=O)cc5)cc4c32)ccc1C [I-15]	–
0.408 µM	0.454 µM	0.643 µM	–	0.872 µM	–	1.55 µM	–	C=CC(=O)Nc1cc(-n2c(=O)ccc3cnc4ccc(-c5cnn(S(=O)(=O)c6ccccc6)c5)cc4c32)ccc1C [II-23]	EC50 (PRCIWM-1 cells): 0.086 µM
0.516 µM	0.024 µM	0.345 µM	–	0.355 µM	–	0.284 µM	–	C=CC(=O)Nc1cc(-n2c(=O)ccc3cnc4ccc(-c5ccc6ocnc6c5)cc4c32)ccc1C [I-24]	–
1.17 µM	0.019 µM	0.849 µM	–	0.653 µM	–	0.61 µM	–	C=CC(=O)Nc1cc(-n2c(=O)ccc3cnc4ccc(-c5ccc6c(c5)OCO6)cc4c32)ccc1C [I-23]	–
–	–	–	0.039 µM	–	0.369 µM	–	0.0197 µM and 0.02 µM	C=CC(=O)Nc1cc(-n2c(=O)ccc3cnc4ccc(-c5ccsc5)cc4c32)ccc1C [II-9]	–
0.38 µM	0.01 µM	0.18 µM	0.025 µM	0.31 µM	0.21 µM	0.95 µM	0.0159 µM and 0.016 µM	C=CC(=O)Nc1cc(-n2c(=O)ccc3cnc4ccc(-c5ccccc5)cc4c32)ccc1C [I-7]	IC50 (BLK): 0.25 µM
–	–	–	0.014 µM	–	0.173 µM	–	0.00816 µM and 0.008 µM	C=CC(=O)Nc1cc(-n2c(=O)ccc3cnc4ccc(-c5cnn(C)c5)cc4c32)ccc1C [II-3]	–
0.408 µM	0.454 µM	0.643 µM	0.016 µM	0.872 µM	0.017 µM	1.55 µM	0.0129 µM and 0.013 µM	C=CC(=O)Nc1cc(-n2c(=O)ccc3cnc4ccc(-c5ccc(N)nc5)cc4c32)ccc1C [II-5]	EC50 (PRCIWM-1 cells): 0.086 µM
–	–	–	0.018 µM	–	0.041 µM	–	0.0105 µM and 0.011 µM	C=CC(=O)Nc1cccc(-n2c(=O)ccc3cnc4ccc(-c5cn[nH]c5)cc4c32)c1 [II-8]	–

The remaining lines, values behind:

Structure (SMILES)	EC50 (OCI-Ly3 cells)	EC50 (OCI-Ly19 cells)	EC50 (BCWM.1 cells)	IC50 (BTK)	EC50 (Ramos cells)	IC50 (mTOR)	EC50 (MWCL-1 cells)	IC50 (BMX [1])	other results
C=CC(=O)N1CCc2ccc(-n3c(=O)ccc4cnc5ccc(-c6ccc(COc7cccc(C(F)(F)F)c7)cc6)cc5c43)cc21 [I-10]	3.66 µM	0.29 µM	2.12 µM	1.06 µM	3.77 µM	–	5.75 µM	> 10 µM	–
C=CC(=O)N1CCc2ccc(-n3c(=O)ccc4cnc5ccc(-c6ccc(N7CCN(C)CC7)cc6)cc5c43)cc21 [I-17]	1.12 µM	0.08 µM	0.49 µM	0.155 µM	0.42 µM	0.516 µM	1.78 µM	0.399 µM	IC50 (JAK3): 5.58 µM
C=CC(=O)Nc1cc(-n2c(=O)ccc3cnc4ccc(Nc5ccc6cnccc6c5)cc4c32)ccc1C [I-27]	2.59 µM	0.374 µM	1.35 µM	–	6.28 µM	–	9.15 µM	–	EC50 (PRCIWM-1 cells): 0.345 µM
C=CC(=O)Nc1cc(-n2c(=O)ccc3cnc4ccc(-c5ccc(COc6cccc(C(F)(F)F)c6)cc5)cc4c32)ccc1C [I-13]	–	–	–	0.037 µM	–	–	–	0.0181 µM and 0.028 µM	–
C=CC(=O)N1CCc2ccc(-n3c(=O)ccc4cnc5ccc(-c6cn[nH]c6)cc5c43)cc21 [II-14]	0.5 µM	0.16 µM	0.32 µM	0.012 µM	0.36 µM	0.209 µM	0.65 µM	0.00875 µM and 0.009 µM	IC50 (BLK): 0.247 µM; IC50 (TEC): 0.057 µM; IC50 (JAK3): 2.15 µM
C=CC(=O)Nc1cc(-n2c(=O)ccc3cnc4ccc(Nc5ccc6ncccc6c5)cc4c32)ccc1C [I-29]	3.08 µM	0.39 µM	2.2 µM	–	2.57 µM	–	7.29 µM	–	EC50 (PRCIWM-1 cells): 0.528 µM
C=CC(=O)N1CCc2ccc(-n3c(=O)ccc4cnc5ccc(-c6cnc7ccccc7c6)cc5c43)cc21 [II-12]	–	–	–	0.007 µM	–	0.059 µM	–	0.00562 µM and 0.006 µM	–
C=CC(=O)N1CCc2ccc(-n3c(=O)ccc4cnc5ccc(-c6ccc(S(=O)(=O)NC(C)(C)C)cc6)cc5c43)cc21 [I-11]	–	–	–	0.011 µM	–	0.536 µM	–	0.0181 µM and 0.018 µM	–
C=CC(=O)N1CCc2ccc(-n3c(=O)ccc4cnc5ccc(-c6ccc(C(=O)NC)cc6F)cc5c43)cc21 [I-9]	–	–	–	0.054 µM	–	–	–	–	–
C=CC(=O)N1CCc2ccc(-n3c(=O)ccc4cnc5ccc(-c6cnc(N)cc6C(F)(F)F)cc5c43)cc21 [II-15]	–	–	–	0.337 µM	–	–	–	–	–
CCC(=O)Nc1cc(-n2c(=O)ccc3cnc4ccc(-c5ccc(NS(C)(=O)=O)cc5)cc4c32)ccc1C [I-14R]	–	–	–	–	–	–	–	–	concentration with antiproliferative effects against RV-1 cells (RV-1 cells): ≥ 10 µM; BMX protein levels in RV-1 cells (BMX [2]): not; concentration inhibiting autophosphorylation of wild-type BMX (wild-type (WT) BMX): > 10,000 nM
C=CC(=O)Nc1cc(-n2c(=O)ccc3cnc4ccc(Nc5ccc6ccncc6c5)cc4c32)ccc1C [I-26]	3.34 µM	0.659 µM	3.58 µM	–	3.83 µM	–	6.82 µM	–	EC50 (PRCIWM-1 cells): 0.663 µM
C=CC(=O)Nc1cc(-n2c(=O)ccc3cnc4ccc(Nc5ccc6cccnc6c5)cc4c32)ccc1C [I-28]	3.59 µM	1.05 µM	4.44 µM	–	3.43 µM	–	7.49 µM	–	EC50 (PRCIWM-1 cells): 0.691 µM
